In ChEMBL document CHEMBL3885881, “DrugMatrix”:

Organism: Rattus norvegicus
Test: DrugMatrix - Regimen: Daily Repeat
Format: toxicity, organism-based, Sprague-Dawley
Design: regimen Daily Repeat, gender Male, age 6-8 weeks
Settings: in vivo, po, route oral GAVAGE, […]; for ABSOLUTE BASOPHIL / ABSOLUTE EOSINOPHIL / ABSOLUTE LYMPHOCYTE / ABSOLUTE MONOCYTE / ABSOLUTE SEGMENTED NEUTROPHIL / BASOPHIL / EOSINOPHIL / ERYTHROCYTE COUNT / HEMATOCRIT / HEMOGLOBIN / LEUKOCYTE COUNT / LYMPHOCYTE / MEAN CORPUSCULAR HEMOGLOBIN / MEAN CORPUSCULAR HEMOGLOBIN CONCENTRATION / MEAN CORPUSCULAR VOLUME / MONOCYTE / NEUTROPHIL / NUCLEATED RED BLOOD CELLS / PLATELET COUNT: tissue Blood; for ALANINE AMINOTRANSFERASE / ALBUMIN / ALKALINE PHOSPHATASE / ASPARTATE AMINOTRANSFERASE / BLOOD UREA NITROGEN / CARBON DIOXIDE / CHLORIDE / CHOLESTEROL / CREATINE PHOSPHOKINASE / CREATININE / GLUCOSE / LACTATE DEHYDROGENASE / LIPASE / PHOSPHORUS / POTASSIUM / SODIUM / TOTAL BILIRUBIN / TOTAL PROTEIN / URIC ACID: tissue Plasma
[1] = 300 mg/kg, 120 h, dose level High, time 5 day
[2] = 72 h, dose 2.5 mg/Kg, dose level Low, time 3 day
[3] = 120 h, dose 2.5 mg/Kg, dose level Low, time 5 day

Compound: CC(C)c1c(C(=O)Nc2ccccc2)c(-c2ccccc2)c(-c2ccc(F)cc2)n1CC[C@@H](O)C[C@@H](O)CC(=O)O [ATORVASTATIN]
- ABSOLUTE BASOPHIL [1]: 0 CELLS/uL
- ABSOLUTE EOSINOPHIL [1]: 0 CELLS/uL
- ABSOLUTE LYMPHOCYTE [1]: 8045.67 CELLS/uL
- ABSOLUTE MONOCYTE [1]: 74 CELLS/uL
- ABSOLUTE SEGMENTED NEUTROPHIL [1]: 647 CELLS/uL
- BASOPHIL [1]: 0%
- EOSINOPHIL [1]: 0%
- ERYTHROCYTE COUNT [1]: 6.15 x10E6/uL
- HEMATOCRIT [1]: 38.73%
- HEMOGLOBIN [1]: 15.2 G/DL
- LEUKOCYTE COUNT [1]: 8.77 x10E3/uL
- LYMPHOCYTE [1]: 92.33%
- MEAN CORPUSCULAR HEMOGLOBIN [1]: 24.73 pg
- MEAN CORPUSCULAR HEMOGLOBIN CONCENTRATION [1]: 39.27 G/DL
- MEAN CORPUSCULAR VOLUME [1]: 63.03 fL
- MONOCYTE [1]: 0.67%
- NEUTROPHIL [1]: 7%
- NUCLEATED RED BLOOD CELLS [1]: 0 /100WBC
- PLATELET COUNT [1]: 1244.33 x10E3/uL
- ALANINE AMINOTRANSFERASE [1]: 175.67 u/L
- ALBUMIN [1]: 4.63 G/DL
- ALKALINE PHOSPHATASE [1]: 577.33 u/L
- ASPARTATE AMINOTRANSFERASE [1]: 151.33 u/L
- BLOOD UREA NITROGEN [1]: 10.67 mg/dL
- CARBON DIOXIDE [1]: 24.67 mmol/L
- CHLORIDE [1]: 101.67 MEQ/L
- CHOLESTEROL [1]: 52.67 mg/dL
- CREATINE PHOSPHOKINASE [1]: 399.67 u/L
- CREATININE [1]: 0.22 mg/dL
- GLUCOSE [1]: 152.67 mg/dL
- LACTATE DEHYDROGENASE [1]: 140.33 u/L
- LIPASE [1]: 60.67 u/L
- PHOSPHORUS [1]: 9.5 mg/dL
- POTASSIUM [1]: 5.73 MEQ/L
- SODIUM [1]: 145.97 MEQ/L
- TOTAL BILIRUBIN [1]: 0.37 mg/dL
- TOTAL PROTEIN [1]: 6.07 G/DL
- URIC ACID [1]: 0.9 mg/dL
- ABSOLUTE BASOPHIL [2]: 0 CELLS/uL
- ABSOLUTE EOSINOPHIL [2]: 0 CELLS/uL
- ABSOLUTE LYMPHOCYTE [2]: 8659.67 CELLS/uL
- ABSOLUTE MONOCYTE [2]: 90 CELLS/uL
- ABSOLUTE SEGMENTED NEUTROPHIL [2]: 583.67 CELLS/uL
- BASOPHIL [2]: 0%
- EOSINOPHIL [2]: 0%
- ERYTHROCYTE COUNT [2]: 5.09 x10E6/uL
- HEMATOCRIT [2]: 32.3%
- HEMOGLOBIN [2]: 12.6 G/DL
- LEUKOCYTE COUNT [2]: 9.33 x10E3/uL
- LYMPHOCYTE [2]: 92.67%
- MEAN CORPUSCULAR HEMOGLOBIN [2]: 24.77 pg
- MEAN CORPUSCULAR HEMOGLOBIN CONCENTRATION [2]: 39.03 G/DL
- MEAN CORPUSCULAR VOLUME [2]: 63.43 fL
- MONOCYTE [2]: 1%
- NEUTROPHIL [2]: 6.33%
- NUCLEATED RED BLOOD CELLS [2]: 0 /100WBC
- PLATELET COUNT [2]: 1132.33 x10E3/uL
- ALANINE AMINOTRANSFERASE [2]: 62 u/L
- ALBUMIN [2]: 4.07 G/DL
- ALKALINE PHOSPHATASE [2]: 560.67 u/L
- ASPARTATE AMINOTRANSFERASE [2]: 82.67 u/L
- BLOOD UREA NITROGEN [2]: 12.33 mg/dL
- CARBON DIOXIDE [2]: 26 mmol/L
- CHLORIDE [2]: 112 MEQ/L
- CHOLESTEROL [2]: 33.67 mg/dL
- CREATINE PHOSPHOKINASE [2]: 218.33 u/L
- CREATININE [2]: 0.14 mg/dL
- GLUCOSE [2]: 166.67 mg/dL
- LACTATE DEHYDROGENASE [2]: 156.33 u/L
- LIPASE [2]: 9.33 u/L
- PHOSPHORUS [2]: 9.23 mg/dL
- POTASSIUM [2]: 5.66 MEQ/L
- SODIUM [2]: 156.57 MEQ/L
- TOTAL BILIRUBIN [2]: 0.17 mg/dL
- TOTAL PROTEIN [2]: 5.77 G/DL
- URIC ACID [2]: 0.9 mg/dL
- ABSOLUTE BASOPHIL [3]: 0 CELLS/uL
- ABSOLUTE EOSINOPHIL [3]: 60.67 CELLS/uL
- ABSOLUTE LYMPHOCYTE [3]: 7091.67 CELLS/uL
- ABSOLUTE MONOCYTE [3]: 0 CELLS/uL
- ABSOLUTE SEGMENTED NEUTROPHIL [3]: 581 CELLS/uL
- BASOPHIL [3]: 0%
- EOSINOPHIL [3]: 0.67%
- ERYTHROCYTE COUNT [3]: 5.48 x10E6/uL
- HEMATOCRIT [3]: 34.67%
- HEMOGLOBIN [3]: 13.4 G/DL
- LEUKOCYTE COUNT [3]: 7.73 x10E3/uL
- LYMPHOCYTE [3]: 91.67%
- MEAN CORPUSCULAR HEMOGLOBIN [3]: 24.53 pg
- MEAN CORPUSCULAR HEMOGLOBIN CONCENTRATION [3]: 38.7 G/DL
- MEAN CORPUSCULAR VOLUME [3]: 63.4 fL
- MONOCYTE [3]: 0%
- NEUTROPHIL [3]: 7.67%
- NUCLEATED RED BLOOD CELLS [3]: 0 /100WBC
- PLATELET COUNT [3]: 1069.33 x10E3/uL
- ALANINE AMINOTRANSFERASE [3]: 63.33 u/L
- ALBUMIN [3]: 3.97 G/DL
- ALKALINE PHOSPHATASE [3]: 478 u/L
- ASPARTATE AMINOTRANSFERASE [3]: 92 u/L
- BLOOD UREA NITROGEN [3]: 11.33 mg/dL
- CARBON DIOXIDE [3]: 29.67 mmol/L
- CHLORIDE [3]: 98.33 MEQ/L
- CHOLESTEROL [3]: 40.67 mg/dL
- CREATINE PHOSPHOKINASE [3]: 375.33 u/L
- CREATININE [3]: 0.14 mg/dL
- GLUCOSE [3]: 160 mg/dL
- LACTATE DEHYDROGENASE [3]: 97.33 u/L
- LIPASE [3]: 9 u/L
- PHOSPHORUS [3]: 11.03 mg/dL
- POTASSIUM [3]: 5.44 MEQ/L
- SODIUM [3]: 144.03 MEQ/L
- TOTAL BILIRUBIN [3]: 0.13 mg/dL
- TOTAL PROTEIN [3]: 6.13 G/DL
- URIC ACID [3]: 0.43 mg/dL
